Results taken from ChEMBL document CHEMBL3046358, “Multiple Pro-197 substitutions in the acetolactate synthase of rigid ryegrass (Lolium rigidum) and their impact on chlorsulfuron activity and plant growth” (Crop Prot, 2012).

Columns and labels:
[1] = tested on: Lolium rigidum; test: Herbicidal activity against Lolium rigidum accession A04 assessed as fresh weight reduction applied at 4 times pre-emergence recommended rate relative to untreated control; format: functional; set-up: scale not given: the % may be the effect or the level left
[2] = tested on: Lolium rigidum; test: Herbicidal activity against Lolium rigidum accession A09 assessed as emergence rate applied at 1 times pre-emergence recommended rate relative to untreated control; format: functional
[3] = tested on: Lolium rigidum; test: Herbicidal activity against Lolium rigidum accession A11 assessed as fresh weight reduction applied at 1 times pre-emergence recommended rate relative to untreated control; format: functional; set-up: scale not given: the % may be the effect or the level left
[4] = tested on: Lolium rigidum; test: Herbicidal activity against Lolium rigidum accession A01 assessed as fresh weight reduction applied at 1 times pre-emergence recommended rate relative to untreated control; format: functional; set-up: scale not given: the % may be the effect or the level left
[5] = tested on: Lolium rigidum; test: Herbicidal activity against Lolium rigidum accession A05 assessed as fresh weight reduction applied at 4 times pre-emergence recommended rate relative to untreated control; format: functional; set-up: scale not given: the % may be the effect or the level left
[6] = tested on: Lolium rigidum; test: Herbicidal activity against Lolium rigidum accession A09 assessed as fresh weight reduction applied at 1 times pre-emergence recommended rate relative to untreated control; format: functional; set-up: scale not given: the % may be the effect or the level left
[7] = tested on: Lolium rigidum; test: Herbicidal activity against Lolium rigidum accession A04 assessed as fresh weight reduction applied at 1 times pre-emergence recommended rate relative to untreated control; format: functional; set-up: scale not given: the % may be the effect or the level left
[8] = tested on: Lolium rigidum; test: Herbicidal activity against Lolium rigidum accession A11 assessed as emergence rate applied at 1 times pre-emergence recommended rate applied in pots where terbufos had been incorporated into the soil relative to untreated control; format: functional
[9] = target: T1, Acetolactate synthase (Lolium rigidum) (UniProt A7XBP7); test: Resistance index, ratio of I50 for acetolactate synthase Ser-197/Ser-197 mutant in Lolium rigidum accession A21 leaves extracts to I50 for acetolactate synthase in Lolium rigidum accession A01 leaves extracts
T1 sequence (whole entry): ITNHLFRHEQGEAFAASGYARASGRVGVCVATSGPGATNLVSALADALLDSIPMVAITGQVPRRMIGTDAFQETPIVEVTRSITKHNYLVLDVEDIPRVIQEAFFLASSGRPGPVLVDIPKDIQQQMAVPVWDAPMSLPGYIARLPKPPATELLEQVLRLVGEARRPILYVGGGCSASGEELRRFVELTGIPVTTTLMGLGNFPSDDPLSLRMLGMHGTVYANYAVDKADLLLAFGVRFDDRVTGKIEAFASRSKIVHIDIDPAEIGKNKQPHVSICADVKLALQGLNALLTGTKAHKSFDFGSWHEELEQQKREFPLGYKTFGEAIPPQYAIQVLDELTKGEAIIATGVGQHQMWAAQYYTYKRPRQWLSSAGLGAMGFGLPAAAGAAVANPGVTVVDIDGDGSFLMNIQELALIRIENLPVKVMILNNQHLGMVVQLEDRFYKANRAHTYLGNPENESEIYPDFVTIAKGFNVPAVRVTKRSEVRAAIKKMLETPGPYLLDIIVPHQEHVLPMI

[10] = target: T1, Acetolactate synthase (Lolium rigidum); test: Resistance index, ratio of I50 for acetolactate synthase Pro-197/Pro-197 mutant in Lolium rigidum accession A09 leaves extracts to I50 for acetolactate synthase in Lolium rigidum accession A01 leaves extracts
[11] = tested on: Lolium rigidum; test: Herbicidal activity against Lolium rigidum accession A08 assessed as emergence rate applied at 1 times pre-emergence recommended rate applied in pots where terbufos had been incorporated into the soil relative to untreated control; format: functional
[12] = tested on: Lolium rigidum; test: Herbicidal activity against Lolium rigidum accession A05 assessed as emergence rate applied at 4 times pre-emergence recommended rate relative to untreated control; format: functional
[13] = tested on: Lolium rigidum; test: Herbicidal activity against Lolium rigidum accession A11 assessed as fresh weight reduction applied at 1 times pre-emergence recommended rate applied in pots where terbufos had been incorporated into the soil relative to untreated control; format: functional; set-up: scale not given: the % may be the effect or the level left
[14] = tested on: Lolium rigidum; test: Herbicidal activity against Lolium rigidum accession A01 assessed as emergence rate applied at 1 times pre-emergence recommended rate relative to untreated control; format: functional
[15] = target: Acetolactate synthase (Lolium rigidum, UniProt A7XBP7, P197R/P197S); test: Inhibition of acetolactate synthase Pro-197/Arg-197 or Pro-197/Ser-197 or Pro/Val or Ala/Leu mutant in Lolium rigidum accession A17 leaves extracts by acetolactate production assay; conditions: read-out: I50
[16] = tested on: Lolium rigidum; test: Herbicidal activity against Lolium rigidum accession A02 assessed as emergence rate applied at 1 times pre-emergence recommended rate applied in pots where terbufos had been incorporated into the soil relative to untreated control; format: functional
[17] = tested on: Lolium rigidum; test: Herbicidal activity against Lolium rigidum accession A07 assessed as fresh weight reduction applied at 4 times pre-emergence recommended rate relative to untreated control; format: functional; set-up: scale not given: the % may be the effect or the level left
[18] = target: T2, Acetolactate synthase (Lolium rigidum, UniProt A7XBP7); test: Inhibition of acetolactate synthase Pro-197/Pro-197 mutant in Lolium rigidum accession A09 leaves extracts by acetolactate production assay; conditions: read-out: I50
[19] = tested on: Lolium rigidum; test: Herbicidal activity against Lolium rigidum accession A02 assessed as emergence rate applied at 4 times pre-emergence recommended rate relative to untreated control; format: functional
[20] = tested on: Lolium rigidum; test: Herbicidal activity against Lolium rigidum accession A01 assessed as fresh weight reduction applied at 4 times pre-emergence recommended rate relative to untreated control; format: functional; set-up: scale not given: the % may be the effect or the level left
[21] = target: T2, Acetolactate synthase; test: Inhibition of acetolactate synthase Pro-197/Pro-197 mutant in Lolium rigidum accession A11 leaves extracts by acetolactate production assay; conditions: read-out: I50
[22] = tested on: Lolium rigidum; test: Herbicidal activity against Lolium rigidum accession A15 assessed as fresh weight reduction applied at 4 times pre-emergence recommended rate relative to untreated control; format: functional; set-up: scale not given: the % may be the effect or the level left
[23] = tested on: Lolium rigidum; test: Herbicidal activity against Lolium rigidum accession A02 assessed as emergence rate applied at 1 times pre-emergence recommended rate relative to untreated control; format: functional
[24] = tested on: Lolium rigidum; test: Herbicidal activity against Lolium rigidum accession A06 assessed as emergence rate applied at 1 times pre-emergence recommended rate relative to untreated control; format: functional
[25] = tested on: Lolium rigidum; test: Herbicidal activity against Lolium rigidum accession A07 assessed as emergence rate applied at 1 times pre-emergence recommended rate applied in pots where terbufos had been incorporated into the soil relative to untreated control; format: functional
[26] = tested on: Lolium rigidum; test: Herbicidal activity against Lolium rigidum accession A12 assessed as fresh weight reduction applied at 1 times pre-emergence recommended rate relative to untreated control; format: functional; set-up: scale not given: the % may be the effect or the level left
[27] = tested on: Lolium rigidum; test: Herbicidal activity against Lolium rigidum accession A06 assessed as fresh weight reduction applied at 4 times pre-emergence recommended rate relative to untreated control; format: functional; set-up: scale not given: the % may be the effect or the level left
[28] = tested on: Lolium rigidum; test: Herbicidal activity against Lolium rigidum accession A12 assessed as emergence rate applied at 1 times pre-emergence recommended rate relative to untreated control; format: functional
[29] = tested on: Lolium rigidum; test: Herbicidal activity against Lolium rigidum accession A08 assessed as emergence rate applied at 1 times pre-emergence recommended rate relative to untreated control; format: functional
[30] = tested on: Lolium rigidum; test: Herbicidal activity against Lolium rigidum accession A14 assessed as fresh weight reduction applied at 4 times pre-emergence recommended rate relative to untreated control; format: functional; set-up: scale not given: the % may be the effect or the level left
[31] = tested on: Lolium rigidum; test: Herbicidal activity against Lolium rigidum accession A03 assessed as fresh weight reduction applied at 4 times pre-emergence recommended rate relative to untreated control; format: functional; set-up: scale not given: the % may be the effect or the level left
[32] = tested on: Lolium rigidum; test: Herbicidal activity against Lolium rigidum accession A02 assessed as fresh weight reduction applied at 4 times pre-emergence recommended rate relative to untreated control; format: functional; set-up: scale not given: the % may be the effect or the level left
[33] = tested on: Lolium rigidum; test: Herbicidal activity against Lolium rigidum accession A04 assessed as fresh weight reduction applied at 1 times pre-emergence recommended rate applied in pots where terbufos had been incorporated into the soil relative to untreated control; format: functional; set-up: scale not given: the % may be the effect or the level left
[34] = tested on: Lolium rigidum; test: Herbicidal activity against Lolium rigidum accession A14 assessed as emergence rate applied at 1 times pre-emergence recommended rate applied in pots where terbufos had been incorporated into the soil relative to untreated control; format: functional
[35] = tested on: Lolium rigidum; test: Herbicidal activity against Lolium rigidum accession A01 assessed as fresh weight reduction applied at 1 times pre-emergence recommended rate applied in pots where terbufos had been incorporated into the soil relative to untreated control; format: functional; set-up: scale not given: the % may be the effect or the level left

COc1nc(C)nc(NC(=O)NS(=O)(=O)c2ccccc2Cl)n1 [CHLORSULFURON]
Activity [1]: 95% | Activity [2]: 44% | Activity [3]: 54% | Activity [4]: 98% | Activity [5]: 2% | Activity [6]: 78% | Activity [7]: 96% | Activity [8]: 2% | Ratio [9]: 53 | Ratio [10]: 1 | Activity [11]: 91% | Activity [12]: 90% | Activity [13]: 97% | Activity [14]: 2% | IC50 [15]: 0.87 µM | Activity [16]: 0% | Activity [17]: 49% | IC50 [18]: 0.03 µM | Activity [19]: 1% | Activity [20]: 99% | IC50 [21]: 0.03 µM | Activity [22]: 98% | Activity [23]: 2% | Activity [24]: 89% | Activity [25]: 85% | Activity [26]: 95% | Activity [27]: 11% | Activity [28]: 2% | Activity [29]: 88% | Activity [30]: 96% | Activity [31]: 91% | Activity [32]: 97% | Activity [33]: 96% | Activity [34]: 1% | Activity [35]: 99%
